Measured values as given in patent US12568972B2, “Pyridazinol compounds and derivatives, preparation methods, herbicidal compositions and applications thereof” (Qingdao Kingagroot Chemical Compound Co., Ltd., priority 2018, dated 2026).

system: Echinochloa crus-galli; test: Post-emergence test, weed control effect; type: in vivo; details: 504 h, Dose 150 g/ha, after 3 weeks, fresh weight inhibition, read-out: activity level of harmful plant destruction (growth inhibition rate), Echinochloa crus-galli
Procedure, shortened: (§1)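 Activity is expressed as a level from 0 (no effect) to 10 (plant dead), each step matching a further 10% fresh-weight inhibition, assessed 3 weeks post-treatment. Treatment: spray at 2-3 leaf stage of pot-grown plants, compound in acetone, Tween-80 and water with 80% vegetable oil methyl ester synergist at 1500 g/ha.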

| SMILES | inhibition at 150 g/ha [%] |
| --- | --- |
| CCCCCCCCSC(=O)Oc1cc(C(F)(F)F)nnc1-c1ccc(F)c(F)c1 [Compound 1-55] | 100 |
| N#Cc1ccccc1C(=O)Oc1cc(C(F)(F)F)nnc1-c1ccc(F)c(F)c1 [Compound 1-86] | 100 |
| CCCSC(=O)Oc1cc(C(F)(F)F)nnc1-c1ccc(F)cc1 [Compound 1-43] | 100 |
| N#Cc1ccc(-c2nnc(C(F)(F)F)cc2OC(=O)c2ccc(Cl)cc2)cc1 [Compound 1-82] | 70 to 80 |

same assay, conditions: 504 h, Dose 300 g/ha, after 3 weeks, fresh weight inhibition, read-out: activity level of harmful plant destruction (growth inhibition rate), Echinochloa crus-galli

| SMILES | inhibition at 300 g/ha [%] |
| --- | --- |
| CCCCCCCCSC(=O)Oc1cc(Cl)nnc1-c1ccccc1 [B, reference compound] | 0 |
| Oc1cc(Cl)nnc1-c1ccccc1 [A, reference compound] | 0 |
| Oc1cc(C(F)(F)F)nnc1-c1ccc(F)c(F)c1 [Compound 744] | 100 |
| Oc1cc(C(F)(F)F)nnc1-c1ccc(Cl)cc1 [Compound 739] | 100 |
| Oc1cc(C(F)(F)F)nnc1-c1ccc(F)c(Cl)c1 [Compound 740] | 100 |

system: Rorippa indica; test: Post-emergence test, weed control effect; type: in vivo; details: Dose 3000 g/ha, after 3 weeks
Procedure, shortened: as §1

| SMILES | weed control effect, Rorippa indica (activity level) | weed control effect (activity level), Rorippa indica |
| --- | --- | --- |
| CCCCCCCCSC(=O)Oc1cc(C(F)(F)F)nnc1-c1ccc(F)c(F)c1 [Compound 1-55] | 10 | – |
| Oc1cc(C(F)(F)F)nnc1-c1ccc(F)c(F)c1 [Compound 744] | – | 10 |
| N#Cc1ccccc1C(=O)Oc1cc(C(F)(F)F)nnc1-c1ccc(F)c(F)c1 [Compound 1-86] | 10 | – |
| Oc1cc(C(F)(F)F)nnc1-c1ccc(Cl)cc1 [Compound 739] | – | 10 |
| Oc1cc(C(F)(F)F)nnc1-c1ccc(F)c(Cl)c1 [Compound 740] | – | 10 |
| CCCSC(=O)Oc1cc(C(F)(F)F)nnc1-c1ccc(F)cc1 [Compound 1-43] | 10 | – |
| N#Cc1ccc(-c2nnc(C(F)(F)F)cc2OC(=O)c2ccc(Cl)cc2)cc1 [Compound 1-82] | 10 | – |

same assay, conditions: Rorippa indica, 504 h, Dose 150 g/ha, after 3 weeks, fresh weight inhibition, read-out: activity level of harmful plant destruction (growth inhibition rate), Rorippa indica

| SMILES | inhibition at 150 g/ha [%] |
| --- | --- |
| CCCCCCCCSC(=O)Oc1cc(C(F)(F)F)nnc1-c1ccc(F)c(F)c1 [Compound 1-55] | 100 |
| N#Cc1ccccc1C(=O)Oc1cc(C(F)(F)F)nnc1-c1ccc(F)c(F)c1 [Compound 1-86] | 100 |
| CCCSC(=O)Oc1cc(C(F)(F)F)nnc1-c1ccc(F)cc1 [Compound 1-43] | 100 |
| N#Cc1ccc(-c2nnc(C(F)(F)F)cc2OC(=O)c2ccc(Cl)cc2)cc1 [Compound 1-82] | 100 |

same assay, conditions: Rorippa indica, 504 h, Dose 300 g/ha, after 3 weeks, fresh weight inhibition, read-out: activity level of harmful plant destruction (growth inhibition rate), Rorippa indica

| SMILES | inhibition at 300 g/ha [%] |
| --- | --- |
| CCCCCCCCSC(=O)Oc1cc(Cl)nnc1-c1ccccc1 [B, reference compound] | 30 to 40 |
| Oc1cc(Cl)nnc1-c1ccccc1 [A, reference compound] | 20 to 30 |
| Oc1cc(C(F)(F)F)nnc1-c1ccc(F)c(F)c1 [Compound 744] | 100 |
| Oc1cc(C(F)(F)F)nnc1-c1ccc(Cl)cc1 [Compound 739] | 100 |
| Oc1cc(C(F)(F)F)nnc1-c1ccc(F)c(Cl)c1 [Compound 740] | 100 |

system: Veronica polita; test: Post-emergence test, weed control effect; type: in vivo; details: Dose 3000 g/ha, after 3 weeks
Procedure, shortened: as §1

| SMILES | weed control effect, Veronica polita (activity level) | weed control effect (activity level), Veronica polita |
| --- | --- | --- |
| CCCCCCCCSC(=O)Oc1cc(C(F)(F)F)nnc1-c1ccc(F)c(F)c1 [Compound 1-55] | 10 | – |
| Oc1cc(C(F)(F)F)nnc1-c1ccc(F)c(F)c1 [Compound 744] | – | 10 |
| N#Cc1ccccc1C(=O)Oc1cc(C(F)(F)F)nnc1-c1ccc(F)c(F)c1 [Compound 1-86] | 10 | – |
| Oc1cc(C(F)(F)F)nnc1-c1ccc(Cl)cc1 [Compound 739] | – | 10 |
| Oc1cc(C(F)(F)F)nnc1-c1ccc(F)c(Cl)c1 [Compound 740] | – | 10 |
| CCCSC(=O)Oc1cc(C(F)(F)F)nnc1-c1ccc(F)cc1 [Compound 1-43] | 10 | – |
| N#Cc1ccc(-c2nnc(C(F)(F)F)cc2OC(=O)c2ccc(Cl)cc2)cc1 [Compound 1-82] | 10 | – |

same assay, conditions: Veronica polita, 504 h, Dose 150 g/ha, after 3 weeks, fresh weight inhibition, read-out: activity level of harmful plant destruction (growth inhibition rate), Veronica polita

| SMILES | inhibition at 150 g/ha [%] |
| --- | --- |
| CCCCCCCCSC(=O)Oc1cc(C(F)(F)F)nnc1-c1ccc(F)c(F)c1 [Compound 1-55] | 100 |
| N#Cc1ccccc1C(=O)Oc1cc(C(F)(F)F)nnc1-c1ccc(F)c(F)c1 [Compound 1-86] | 100 |
| CCCSC(=O)Oc1cc(C(F)(F)F)nnc1-c1ccc(F)cc1 [Compound 1-43] | 100 |
| N#Cc1ccc(-c2nnc(C(F)(F)F)cc2OC(=O)c2ccc(Cl)cc2)cc1 [Compound 1-82] | 80 to 90 |

same assay, conditions: Veronica polita, 504 h, Dose 300 g/ha, after 3 weeks, fresh weight inhibition, read-out: activity level of harmful plant destruction (growth inhibition rate), Veronica polita

| SMILES | inhibition at 300 g/ha [%] |
| --- | --- |
| CCCCCCCCSC(=O)Oc1cc(Cl)nnc1-c1ccccc1 [B, reference compound] | 30 to 40 |
| Oc1cc(Cl)nnc1-c1ccccc1 [A, reference compound] | 30 to 40 |
| Oc1cc(C(F)(F)F)nnc1-c1ccc(F)c(F)c1 [Compound 744] | 100 |
| Oc1cc(C(F)(F)F)nnc1-c1ccc(Cl)cc1 [Compound 739] | 100 |
| Oc1cc(C(F)(F)F)nnc1-c1ccc(F)c(Cl)c1 [Compound 740] | 100 |

system: Setaria viridis; test: Post-emergence test, weed control effect; type: in vivo; details: 504 h, Dose 150 g/ha, after 3 weeks, fresh weight inhibition, read-out: activity level of harmful plant destruction (growth inhibition rate), Setaria viridis
Procedure, shortened: as §1

| SMILES | inhibition at 150 g/ha [%] |
| --- | --- |
| CCCCCCCCSC(=O)Oc1cc(C(F)(F)F)nnc1-c1ccc(F)c(F)c1 [Compound 1-55] | 100 |
| N#Cc1ccccc1C(=O)Oc1cc(C(F)(F)F)nnc1-c1ccc(F)c(F)c1 [Compound 1-86] | 100 |
| CCCSC(=O)Oc1cc(C(F)(F)F)nnc1-c1ccc(F)cc1 [Compound 1-43] | 100 |
| N#Cc1ccc(-c2nnc(C(F)(F)F)cc2OC(=O)c2ccc(Cl)cc2)cc1 [Compound 1-82] | 100 |

same assay, conditions: 504 h, Dose 300 g/ha, after 3 weeks, fresh weight inhibition, read-out: activity level of harmful plant destruction (growth inhibition rate), Setaria viridis

| SMILES | inhibition at 300 g/ha [%] |
| --- | --- |
| CCCCCCCCSC(=O)Oc1cc(Cl)nnc1-c1ccccc1 [B, reference compound] | 30 to 40 |
| Oc1cc(Cl)nnc1-c1ccccc1 [A, reference compound] | 30 to 40 |
| Oc1cc(C(F)(F)F)nnc1-c1ccc(F)c(F)c1 [Compound 744] | 100 |
| Oc1cc(C(F)(F)F)nnc1-c1ccc(Cl)cc1 [Compound 739] | 100 |
| Oc1cc(C(F)(F)F)nnc1-c1ccc(F)c(Cl)c1 [Compound 740] | 100 |

system: Amaranthus retroflexus; test: Post-emergence test, weed control effect; type: in vivo; details: Dose 3000 g/ha, after 3 weeks
Procedure, shortened: as §1

| SMILES | weed control effect, Amaranthus retroflexus (activity level) | weed control effect (activity level), Amaranthus retroflexus |
| --- | --- | --- |
| CCCCCCCCSC(=O)Oc1cc(C(F)(F)F)nnc1-c1ccc(F)c(F)c1 [Compound 1-55] | 10 | – |
| Oc1cc(C(F)(F)F)nnc1-c1ccc(F)c(F)c1 [Compound 744] | – | 10 |
| N#Cc1ccccc1C(=O)Oc1cc(C(F)(F)F)nnc1-c1ccc(F)c(F)c1 [Compound 1-86] | 10 | – |
| Oc1cc(C(F)(F)F)nnc1-c1ccc(Cl)cc1 [Compound 739] | – | 10 |
| Oc1cc(C(F)(F)F)nnc1-c1ccc(F)c(Cl)c1 [Compound 740] | – | 10 |
| CCCSC(=O)Oc1cc(C(F)(F)F)nnc1-c1ccc(F)cc1 [Compound 1-43] | 10 | – |
| N#Cc1ccc(-c2nnc(C(F)(F)F)cc2OC(=O)c2ccc(Cl)cc2)cc1 [Compound 1-82] | 10 | – |

system: Galium aparine; test: Post-emergence test, weed control effect; type: in vivo; details: 504 h, Dose 150 g/ha, after 3 weeks, fresh weight inhibition, read-out: activity level of harmful plant destruction (growth inhibition rate), Galium aparine
Procedure, shortened: as §1

| SMILES | inhibition at 150 g/ha [%] |
| --- | --- |
| CCCCCCCCSC(=O)Oc1cc(C(F)(F)F)nnc1-c1ccc(F)c(F)c1 [Compound 1-55] | 100 |
| N#Cc1ccccc1C(=O)Oc1cc(C(F)(F)F)nnc1-c1ccc(F)c(F)c1 [Compound 1-86] | 100 |
| CCCSC(=O)Oc1cc(C(F)(F)F)nnc1-c1ccc(F)cc1 [Compound 1-43] | 100 |
| N#Cc1ccc(-c2nnc(C(F)(F)F)cc2OC(=O)c2ccc(Cl)cc2)cc1 [Compound 1-82] | 70 to 80 |

same assay, conditions: 504 h, Dose 300 g/ha, after 3 weeks, fresh weight inhibition, read-out: activity level of harmful plant destruction (growth inhibition rate), Galium aparine

| SMILES | inhibition at 300 g/ha [%] |
| --- | --- |
| CCCCCCCCSC(=O)Oc1cc(Cl)nnc1-c1ccccc1 [B, reference compound] | 40 to 50 |
| Oc1cc(Cl)nnc1-c1ccccc1 [A, reference compound] | 50 to 60 |
| Oc1cc(C(F)(F)F)nnc1-c1ccc(F)c(F)c1 [Compound 744] | 100 |
| Oc1cc(C(F)(F)F)nnc1-c1ccc(Cl)cc1 [Compound 739] | 80 to 90 |
| Oc1cc(C(F)(F)F)nnc1-c1ccc(F)c(Cl)c1 [Compound 740] | 100 |

system: Chenopodiaceae; test: Post-emergence test, weed control effect; type: in vivo; details: 504 h, Dose 150 g/ha, after 3 weeks, fresh weight inhibition, read-out: activity level of harmful plant destruction (growth inhibition rate), Chenopodiaceae
Procedure, shortened: as §1

| SMILES | inhibition at 150 g/ha [%] |
| --- | --- |
| CCCCCCCCSC(=O)Oc1cc(C(F)(F)F)nnc1-c1ccc(F)c(F)c1 [Compound 1-55] | 100 |
| N#Cc1ccccc1C(=O)Oc1cc(C(F)(F)F)nnc1-c1ccc(F)c(F)c1 [Compound 1-86] | 100 |
| CCCSC(=O)Oc1cc(C(F)(F)F)nnc1-c1ccc(F)cc1 [Compound 1-43] | 100 |
| N#Cc1ccc(-c2nnc(C(F)(F)F)cc2OC(=O)c2ccc(Cl)cc2)cc1 [Compound 1-82] | 100 |

same assay, conditions: 504 h, Dose 300 g/ha, after 3 weeks, fresh weight inhibition, read-out: activity level of harmful plant destruction (growth inhibition rate), Chenopodiaceae

| SMILES | inhibition at 300 g/ha [%] |
| --- | --- |
| CCCCCCCCSC(=O)Oc1cc(Cl)nnc1-c1ccccc1 [B, reference compound] | 30 to 40 |
| Oc1cc(Cl)nnc1-c1ccccc1 [A, reference compound] | 50 to 60 |
| Oc1cc(C(F)(F)F)nnc1-c1ccc(F)c(F)c1 [Compound 744] | 100 |
| Oc1cc(C(F)(F)F)nnc1-c1ccc(Cl)cc1 [Compound 739] | 100 |
| Oc1cc(C(F)(F)F)nnc1-c1ccc(F)c(Cl)c1 [Compound 740] | 100 |

same assay, conditions: Dose 3000 g/ha, after 3 weeks

| SMILES | weed control effect, Chenopodiaceae (activity level) | weed control effect (activity level), Chenopodiaceae |
| --- | --- | --- |
| CCCCCCCCSC(=O)Oc1cc(C(F)(F)F)nnc1-c1ccc(F)c(F)c1 [Compound 1-55] | 10 | – |
| Oc1cc(C(F)(F)F)nnc1-c1ccc(F)c(F)c1 [Compound 744] | – | 10 |
| N#Cc1ccccc1C(=O)Oc1cc(C(F)(F)F)nnc1-c1ccc(F)c(F)c1 [Compound 1-86] | 10 | – |
| Oc1cc(C(F)(F)F)nnc1-c1ccc(Cl)cc1 [Compound 739] | – | 10 |
| Oc1cc(C(F)(F)F)nnc1-c1ccc(F)c(Cl)c1 [Compound 740] | – | 10 |
| CCCSC(=O)Oc1cc(C(F)(F)F)nnc1-c1ccc(F)cc1 [Compound 1-43] | 10 | – |
| N#Cc1ccc(-c2nnc(C(F)(F)F)cc2OC(=O)c2ccc(Cl)cc2)cc1 [Compound 1-82] | 10 | – |
